The source of these data is PubChem BioAssay AID492977 (The Scripps Research Institute Molecular Screening Center, 2010).

Molecules are shown by their SMILES. Active and inactive are the calls of the source.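 Rule for the calls: active = inhibition of the parasite aminopeptidase above 50%; inactive = the rest.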

In this experiment the target is Leucine aminopeptidase (Plasmodium falciparum (isolate 3D7)) (UniProt Q8IL11). The experiment in a line: inhibition of purified malaria M17 aminopeptidase – biochemical, fluorescence, recombinant enzyme, powder samples, late-stage follow-up (AID 492977). The note with it: recombinant PfM17LAP, H-Leu-NHMec fluorogenic substrate; at 5 µM; stronger effect = higher value.
Leucine aminopeptidase (Plasmodium falciparum (isolate 3D7)), sequence (Q8IL11 whole entry, looked up): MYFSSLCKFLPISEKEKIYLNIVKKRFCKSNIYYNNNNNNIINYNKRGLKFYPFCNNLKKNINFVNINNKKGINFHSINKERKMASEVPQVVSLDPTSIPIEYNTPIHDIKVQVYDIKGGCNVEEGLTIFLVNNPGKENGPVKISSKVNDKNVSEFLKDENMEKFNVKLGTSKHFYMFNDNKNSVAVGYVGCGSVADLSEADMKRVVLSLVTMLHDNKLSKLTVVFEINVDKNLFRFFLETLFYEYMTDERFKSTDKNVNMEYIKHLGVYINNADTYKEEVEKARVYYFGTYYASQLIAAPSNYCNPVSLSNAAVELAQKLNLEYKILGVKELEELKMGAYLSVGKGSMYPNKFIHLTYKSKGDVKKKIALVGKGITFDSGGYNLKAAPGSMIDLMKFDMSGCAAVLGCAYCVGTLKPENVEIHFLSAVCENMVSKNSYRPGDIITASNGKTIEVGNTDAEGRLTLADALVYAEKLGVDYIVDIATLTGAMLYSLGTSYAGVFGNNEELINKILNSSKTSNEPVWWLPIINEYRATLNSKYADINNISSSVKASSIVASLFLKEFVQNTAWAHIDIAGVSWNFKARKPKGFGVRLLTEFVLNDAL
Turning to `Cc1ccc(-n2c(C)cc(C(=O)COC(=O)c3ccc[nH]c3=O)c2C)cc1C`, the inhibition is 36% (inactive). For the compound `CCc1cc2ccccc2nc1SCC(=O)Nc1cc(OC)c(OC)cc1C(=O)O`, the inhibition is 89%.

As for `Cc1ccc(-c2c(C)sc(NC(=O)[C@@H]3C4CCC(O4)[C@@H]3C(=O)O)c2C(=O)OC(C)C)cc1` (some centres not stated), the inhibition is 19% (inactive). Take `Cc1ccc(-n2c(C)cc(C(=O)COC(=O)c3ccc[nH]c3=O)c2C)cc1`: the inhibition was 40% (inactive). The same measure for `CCCCc1c(O)nc(SCC(=O)Nc2ccc3c(c2)CCC3)[nH]c1=O`: 27% (inactive); for `O=C(CSc1nc(O)cc(=O)n1-c1ccccc1)Nc1ccc2c3c(cccc13)CC2`: 20% (inactive); for `CCOC(=O)c1c(-c2cccc(C)c2)csc1NC(=O)[C@H]1CC=CC[C@H]1C(=O)O`: 19% (inactive). As for `CCOC(=O)c1c(NC(=O)[C@@H]2C3CCC(O3)[C@@H]2C(=O)O)sc(C)c1-c1ccc(C)cc1` (some centres not stated), the inhibition is 20% (inactive).

As for `CC(C)c1ccc(NC(=O)[C@H]2CCCC[C@H]2C(=O)O)cc1`, the inhibition was 15% (inactive). As for `CCOc1cccc(-c2cc(=O)[nH][nH]2)c1`, the inhibition was 72%. In the case of `CCOC(=O)c1c(-c2ccc(C)cc2)csc1NC(=O)[C@H]1CC=CC[C@H]1C(=O)O`, the inhibition was 24% (inactive). As for `Cc1cc(C(=O)COC(=O)c2ccc[nH]c2=O)c(C)n1-c1ccccc1`, the inhibition was 23% (inactive). The same measure for `CCOC(=O)c1c(NC(=O)[C@@H]2C3C=CC(C3)[C@@H]2C(=O)O)sc2c1CCC(CC)C2` (some centres not stated): 20% (inactive); for `O=C(CSc1nccc(=O)[nH]1)Nc1ccc(Br)c(Cl)c1`: 60%; for `C=CCn1c(SCC(=O)Nc2cccc3ccccc23)nc(O)c(CC)c1=O`: 20% (inactive). In the case of `CCOc1ccc(NC(=O)Nc2ccc3nccnc3c2)cc1`, the inhibition was 11% (inactive). With `COc1ccc2nc(SCC(=O)Nc3cc(OC)c(OC)cc3C(=O)O)c(C)cc2c1`, the inhibition was 86%.

In the case of `CCn1c2ccccc2c2cc(NC(=O)CSc3nccc(=O)[nH]3)ccc21`, the inhibition is 70%. The same measure for `O=C(Nc1cc(Cl)ccc1Cl)[C@H]1CC=CC[C@H]1C(=O)O`: 14% (inactive); for `COC(=O)c1c(NC(=O)[C@H]2CC=CC[C@H]2C(=O)O)sc(C)c1C`: 17% (inactive). `O=c1cc(-c2ccc(Cl)c(Cl)c2)[nH][nH]1`: the inhibition was 2% (inactive). For `COc1ccc(NC(=O)CSC2=NC(=O)CC(C)=N2)cc1`, the inhibition was 21% (inactive). As for `CCc1ccc(NC(=O)[C@H]2CC=CC[C@H]2C(=O)O)cc1`, the inhibition was 27% (inactive).

With `CC1=C(C)C[C@@H](C(=O)O)[C@@H](C(=O)Nc2cccc([N+](=O)[O-])c2)C1`, the inhibition was 12% (inactive). For `O=C(Nc1ccc(Cl)cc1)Nc1cccc(C(=O)O)c1`, the inhibition is 65%. Take `O=c1cc(-c2ccc(F)cc2)[nH][nH]1`: the inhibition was 49% (inactive). `COC(=O)c1c(NC(=O)[C@H]2CCCC[C@H]2C(=O)O)sc2c1CCCCC2`: the inhibition is 59%. As for `COc1ccc(NC(=O)CSc2nc(O)cc(=O)n2C)cc1`, the inhibition is 18% (inactive). For the compound `COc1ccc(-c2cc(=O)[nH][nH]2)cc1OC`, the inhibition was 18% (inactive).

For `COC(=O)c1c(-c2ccc(C)cc2)csc1NC(=O)[C@H]1CC=CC[C@H]1C(=O)O`, the inhibition is 47% (inactive). On to `N#Cc1c(NC(=O)[C@@H]2C3C=CC(C3)[C@@H]2C(=O)O)sc2c1CCCCC2` (some centres not stated), for which the inhibition was 25% (inactive).

On to `CCOc1ccc(NC(=O)Nc2cccs2)cc1`, for which the inhibition is 31% (inactive). The same measure for `COc1ccc(-c2cc(=O)[nH][nH]2)cc1`: 40% (inactive); for `O=C(O)Cc1ccc(NC(=O)Nc2ccc(Br)cc2)cc1`: 38% (inactive); for `COC(=O)c1c(-c2cc(C)ccc2C)csc1NC(=O)[C@@H]1CC=CC[C@@H]1C(=O)O`: 58%. Turning to `COc1cc(NC(=O)CSc2nnc3c(C)cc4cc(C)cc(C)c4n23)c(C(=O)O)cc1OC`, the inhibition was 72%.

In the case of `COc1cc(NC(=O)CSc2nc3ccccc3cc2C)c(C(=O)O)cc1OC`, the inhibition was 86%. As for `Cc1ccc(NC(=O)CSc2nnc(C)c(=O)[nH]2)cc1C`, the inhibition is 17% (inactive). For the compound `Cc1cc(C(=O)COC(=O)c2ccc[nH]c2=O)c(C)n1-c1ccc(F)cc1`, the inhibition was 19% (inactive).

For the compound `CCN(CC)c1ccc(NC(=O)CSc2nc(C)cc(=O)[nH]2)cc1`, the inhibition was 43% (inactive). For the compound `COC(=O)c1c(-c2ccco2)csc1NC(=O)[C@H]1CC=CC[C@H]1C(=O)O`, the inhibition was 50% (inactive). The same measure for `CCc1ccc(Nc2nnc(SC3CCOC3=O)s2)cc1` (configuration not stated): 31% (inactive). As for `O=C(O)CCCCCNC(=O)Nc1ccc2c(c1)OCCO2`, the inhibition was 15% (inactive). The same measure for `COC(=O)c1cccc(NC(=O)CSc2nc(C)cc(=O)[nH]2)c1`: 21% (inactive); for `Cn1c(SCC(=O)Nc2cccc3ccccc23)nc(O)cc1=O`: 12% (inactive); for `Cc1ccc(Nc2nnc(SC3CCOC3=O)s2)cc1` (configuration not stated): 53%. Turning to `Cc1ccc(Nc2nnc(SCc3cc(=O)n4ccsc4n3)s2)c(C)c1`, the inhibition is 10% (inactive). Regarding `COc1ccc(C(C)(C)C)cc1NC(=O)[C@H]1CC=CC[C@H]1C(=O)O`, the inhibition was 26% (inactive). `COc1cc(NC(=O)CSc2nc3c(C)ccc(C)c3cc2C)c(C(=O)O)cc1OC`: the inhibition is 93%. Consider `CCc1cc2ccc(C)cc2nc1SCC(=O)Nc1cc(OC)c(OC)cc1C(=O)O`, for which the inhibition was 90%. The same measure for `S=c1nc(-c2ccccc2Br)[nH][nH]1`: 27% (inactive). The same measure for `CCc1cc2cc(OC)ccc2nc1SCC(=O)Nc1cc(OC)c(OC)cc1C(=O)O`: 89%. Regarding `COc1cc(NC(=O)CSc2nc3cc(C)ccc3cc2C)c(C(=O)O)cc1OC`, the inhibition is 82%. The same measure for `O=C(Nc1cccc(Cl)c1)[C@H]1CC=CC[C@H]1C(=O)O`: 13% (inactive); for `Cc1ccc(-c2cccc(NC(=O)[C@@H]3C4C=CC(C4)[C@@H]3C(=O)O)c2)o1` (some centres not stated): 9% (inactive); for `O=C(CSc1nnc(Nc2ccccc2)s1)NN1C(=O)NC2(CCCCC2)C1=O`: 37% (inactive).

With `S=c1nc(-c2cccc(Cl)c2)[nH][nH]1`, the inhibition was 45% (inactive).
